The values that follow come from PubChem BioAssay (NCI).

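Compound exposure: 48 hours, 5 concentrations, 96-well plates. TGI denotes the concentration required for complete inhibition of growth.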 Some results are limits rather than exact numbers.

Test in all cases: NCI-60 cell line screen, 48 h
Assay [1] deals with EKVX NSCLC.
In assay [2] the test system is MCF7 breast.
In assay [3] the test system is SNB-75 CNS.
In assay [4] the test system is BT-549 breast.
The test system of assay [5] is HL-60(TB) leukemia.
Assay [6] has as its system UACC-257 melanoma.
Assay [7] has as its system 786-0 renal.
Assay [8] relates to MDA-MB-435.
In assay [9] the test system is HOP-62 NSCLC.
Assay [10] concerns SN12C renal.
For assay [11], the system named is CCRF-CEM leukemia.
Assay [12] deals with SK-MEL-5 melanoma.
Assay [13] deals with SR leukemia.
The subject of assay [14] is LOX IMVI melanoma.
Assay [15] has as its system RPMI-8226 leukemia.
Assay [16] deals with SK-MEL-28 melanoma.
In assay [17] the test system is KM12 colon.
The test system of assay [18] is HCC-2998 colon.
For assay [19], the system named is NCI-H460 lung.
In assay [20] the test system is HT29 colon.

In the case of `NC(N)=N/N=C/c1c(Cl)nc2sccn12`, the TGI is over 100 µM in [1]; 73.6 µM in assay [2]; over 100 µM in assay [3]; over 100 µM in assay [4]; 42.1 µM in [5]; 49 µM in [6]. The TGI in [7] was 32.7 µM; in assay [8] it was over 100 µM; in [9], 66.8 µM; in assay [10], over 100 µM; in [11], 73 µM; in assay [12], 29.2 µM. Besides, the TGI in assay [13] was 54 µM; in [14], 39.6 µM; in [15], 53.1 µM; in [16] it was over 100 µM; in [17] it was 37.4 µM; in assay [18], 34 µM. In addition, the results for the TGI in assay [19] and in [20] were 30.3 µM and 31.6 µM, respectively.
As to `c1ccc2c(c1)nc1n2CNCC1`, the TGI in assay [1], in assay [2], in assay [3], in [4], in assay [5] and in [6] was over 100 µM throughout. For the same molecule, the TGI in [7], in assay [8], in assay [9], in assay [10], in assay [12] and in assay [13] was over 100 µM each time. Further, the TGI in assay [14] is 73.3 µM; in assay [15], over 100 µM; in assay [16], over 100 µM; in assay [17], over 100 µM; in assay [18], over 100 µM; in assay [19], over 100 µM. This molecule gave a TGI in assay [20] of over 100 µM.
For `C=C1CC[C@@]2(OC1)OC1C[C@H]3[C@@H]4CC=C5C[C@@H](O)CC(OC6OCC(OC(=O)[C@@H](O)[C@@H](C)CC)C(OC(C)=O)C6OC6OC(C)C(O)C(O)C6O)[C@]5(C)[C@H]4CC[C@]3(C)C1[C@@H]2C` (some centres not stated), the TGI in assay [1] was 6.51 µM; in assay [2], 3.23 µM; in assay [3] it was 4.84 µM; in assay [4], over 10 µM; in assay [5], 4.87 µM; in assay [6], 5.48 µM. Further, the TGI in assay [7] came to 3.27 µM; in assay [8], 3.38 µM; in assay [10], 4 µM; in assay [11] it was 3.43 µM; in [12] it was 3.59 µM; in assay [13], 4.4 µM. The TGI in [14] stood at 3.67 µM; in [15] it was 4.89 µM; in assay [16] it was 4.58 µM; in [17], 5.13 µM; in assay [18] it was 2.96 µM; in [19], 3.32 µM. For the same molecule, the TGI in [20] is over 10 µM.
Take `Cc1cc(NS(=O)(=O)c2ccc(N=Nc3c(O)c(C(=O)O)cc4ccccc34)cc2)nc(C)n1`: the TGI in [1], in assay [2], in assay [3], in [4], in assay [5] and in assay [6] was over 100 µM in each case. In addition, the TGI in assay [7], in [8], in [9], in [11], in assay [12] and in [13] was over 100 µM in each case. The TGI in assay [15], in [16], in assay [17], in assay [18], in assay [19] and in assay [20] was over 100 µM in each case.
On to `O=C(CC(=O)N(C(=O)c1ccccc1)c1ccc(Cl)cc1)N/N=C\c1cc(N=Nc2ccccc2Cl)ccc1O`, for which the TGI is over 100 µM in [1]; over 100 µM in [2]; 36.6 µM in assay [3]; over 100 µM in assay [4]; 26.2 µM in assay [5]; over 100 µM in assay [7]. The TGI was over 100 µM in assay [8]; over 100 µM in assay [9]; over 100 µM in assay [10]; 51.4 µM in assay [11]; 35.8 µM in assay [13]; over 100 µM in assay [14]. The TGI in assay [15], in assay [16], in [17], in [18], in assay [19] and in assay [20] was over 100 µM in each case.
Take `O=C(Nc1ccc2nc(-c3ccccc3)cn2c1)Oc1ccccc1`: the TGI in assay [1] is over 100 µM; in [2], over 100 µM; in assay [3], 13.1 µM; in assay [4] it was over 100 µM; in assay [5], over 100 µM; in [6], over 100 µM. Besides, the TGI was over 100 µM in assay [7]; 47.5 µM in assay [8]; over 100 µM in assay [9]; over 100 µM in assay [10]; over 100 µM in assay [11]; over 100 µM in [12]. In addition, the TGI in assay [13], in assay [14], in [16], in [17], in [18] and in assay [19] was over 100 µM throughout. This molecule showed a TGI in assay [20] of over 100 µM.
Regarding `COc1ccccc1N1C(=O)/C(=C\c2cccc(Oc3ccccc3)c2)SC1c1ccccc1` (configuration not stated), the TGI in [1] was over 100 µM; in assay [2], over 100 µM; in assay [3], over 100 µM; in [4], over 100 µM; in [5], 39.4 µM; in [6], over 100 µM. Besides, the TGI in assay [7] was over 100 µM; in [8] it was over 100 µM; in assay [9] it was over 100 µM; in [10], over 100 µM; in assay [12] it was 32.8 µM; in assay [13], over 100 µM. The TGI in [14], in assay [15], in assay [16], in assay [17], in assay [18] and in assay [19] was over 100 µM each time. Besides, in assay [20], the TGI is over 100 µM.
